Test results from patent publication US20210236539A1, “METHOD OF PROPHYLAXIS OF ZIKA VIRUS INFECTION” (priority 2016, published 2021).

Tests used:
Dengue Type 2 virus = assay: Activity against Dengue Type 2 virus (DSP0196); format: cell-based
Experimental: (§1) The activity of dendrimeric compounds against Dengue virus (D) and West Nile Fever virus (WNF) was tested.
b) The compound [BHAlys] [Lys]16 [CSNH-4-Ph(SO3Na)]32 (SPL compound 2792) was tested for activity against Dengue Type 2 virus (DSP0196). (the compound has a sulfonic acid- or sulfonate-containing moiety which is […]

West Nile Fever virus = assay: Activity against West Nile Fever virus (DSP0114), 4 concentration assay; format: cell-based
Experimental: as §1
a) The compound [BHAlys][Lys]16[CONH-Ph-3,5-(SO3Na)2]32 (SPL compound 7674) was tested for activity against West Nile Fever virus (DSP0114) (the compound has a sulfonic acid- or sulfonate-containing moiety which is
A 4 concentration assay was used. The positive control was interferon-alpha.

Substance | activity against Dengue Type 2 virus (in words) (Dengue Type 2 virus) | EC50 NR (Dengue Type 2 virus; Dengue Type 2 virus, NR readout) [µg/mL] | EC50 VIS (Dengue Type 2 virus; Dengue Type 2 virus, VIS readout) [µg/mL] | activity against West Nile Fever virus (in words) (West Nile Fever virus) | EC50 NR (West Nile Fever virus; West Nile Fever virus, NR readout) [µg/mL] | EC50 VIS (West Nile Fever virus; West Nile Fever virus, VIS readout) [µg/mL]
[BHAlys] [Lys]16 [CSNH-4-Ph(SO3Na)]32 [SPL compound 2792] | not active | 50.3 | > 100 |  |  | 
[BHAlys][Lys]16[CONH-Ph-3,5-(SO3Na)2]32 [SPL compound 7674] |  |  |  | not active | 34 | 22
